{
  "source": "ChEMBL document CHEMBL1201862",
  "about": "“PubChem BioAssay data set” (2004)",
  "key": {"[1]": {"target": "T1, Caspase-6 (Homo sapiens, UniProt P55212)", "T1 sequence (P55212 whole entry)": "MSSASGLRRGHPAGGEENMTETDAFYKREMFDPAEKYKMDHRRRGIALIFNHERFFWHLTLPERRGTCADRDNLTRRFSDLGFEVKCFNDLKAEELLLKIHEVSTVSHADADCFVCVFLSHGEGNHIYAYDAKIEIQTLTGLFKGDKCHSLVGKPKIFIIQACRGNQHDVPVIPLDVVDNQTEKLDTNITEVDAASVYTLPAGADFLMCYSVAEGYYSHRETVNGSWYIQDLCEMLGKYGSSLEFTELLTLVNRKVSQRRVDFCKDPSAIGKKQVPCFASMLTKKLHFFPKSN", "assay": "inhibition of CASP6 peptide cleavage – biochemical, VEID-R110 fluorescence, cherry-pick, dose response (AID 720632)"}, "[2]": {"target": "T2, Rac GTPase-activating protein 1 (Homo sapiens, UniProt Q9H0H5)", "T2 sequence (Q9H0H5 whole entry)": "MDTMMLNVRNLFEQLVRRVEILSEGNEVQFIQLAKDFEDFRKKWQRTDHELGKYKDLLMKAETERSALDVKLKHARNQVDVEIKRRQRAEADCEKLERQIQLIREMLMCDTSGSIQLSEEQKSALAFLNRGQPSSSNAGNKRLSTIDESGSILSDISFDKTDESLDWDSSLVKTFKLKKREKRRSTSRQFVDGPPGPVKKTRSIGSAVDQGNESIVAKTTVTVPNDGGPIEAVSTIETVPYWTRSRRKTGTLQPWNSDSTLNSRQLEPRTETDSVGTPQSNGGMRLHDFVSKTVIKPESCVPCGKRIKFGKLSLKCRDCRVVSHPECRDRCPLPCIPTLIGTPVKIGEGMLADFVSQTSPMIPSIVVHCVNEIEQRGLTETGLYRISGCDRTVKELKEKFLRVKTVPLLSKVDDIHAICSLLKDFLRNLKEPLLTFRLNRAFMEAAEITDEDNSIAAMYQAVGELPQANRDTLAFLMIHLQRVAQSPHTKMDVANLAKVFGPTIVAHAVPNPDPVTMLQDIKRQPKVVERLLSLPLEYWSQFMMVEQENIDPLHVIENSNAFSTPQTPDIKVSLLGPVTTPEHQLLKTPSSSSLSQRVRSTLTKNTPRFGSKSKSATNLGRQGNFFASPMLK", "assay": "blockers of MgcRacGAP-driven Rac1 GTP hydrolysis – biochemical, ADP Hunter fluorescence, primary and confirmatory, confirmation (AID 624330)", "type": "functional"}, "[3]": {"target": "Nonstructural protein 1 (Influenza A virus, UniProt Q194T2)", "sequence (Q194T2 whole entry)": "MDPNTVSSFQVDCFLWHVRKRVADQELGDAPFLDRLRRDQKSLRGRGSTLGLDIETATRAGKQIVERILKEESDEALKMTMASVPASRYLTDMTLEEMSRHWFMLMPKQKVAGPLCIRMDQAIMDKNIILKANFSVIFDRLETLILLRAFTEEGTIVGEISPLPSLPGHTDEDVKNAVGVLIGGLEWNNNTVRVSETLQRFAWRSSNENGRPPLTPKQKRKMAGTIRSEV", "type": "functional, Influenza A virus (A/California/07/2009(H1N1))"}, "[4]": {"tested_on": "BJ", "assay": "cells", "type": "functional, cell-based", "settings": "Homo sapiens"}, "[5]": {"assay": "HEK-293T viability loss, compound-treated – cell-based, uHTS hits, cytotoxicity control for B/T-cell NF-kB inhibitor project, dose response (AID 489019)", "type": "functional"}, "[6]": {"assay": "DRD fibroblast viability loss – cell-based, non-viral oncogenic, luminescence, dose response (AID 1934)", "type": "functional", "settings": "Homo sapiens"}, "[7]": {"target": "Beta-galactosidase (Escherichia coli, UniProt Q8VNN2)", "sequence (Q8VNN2 whole entry)": "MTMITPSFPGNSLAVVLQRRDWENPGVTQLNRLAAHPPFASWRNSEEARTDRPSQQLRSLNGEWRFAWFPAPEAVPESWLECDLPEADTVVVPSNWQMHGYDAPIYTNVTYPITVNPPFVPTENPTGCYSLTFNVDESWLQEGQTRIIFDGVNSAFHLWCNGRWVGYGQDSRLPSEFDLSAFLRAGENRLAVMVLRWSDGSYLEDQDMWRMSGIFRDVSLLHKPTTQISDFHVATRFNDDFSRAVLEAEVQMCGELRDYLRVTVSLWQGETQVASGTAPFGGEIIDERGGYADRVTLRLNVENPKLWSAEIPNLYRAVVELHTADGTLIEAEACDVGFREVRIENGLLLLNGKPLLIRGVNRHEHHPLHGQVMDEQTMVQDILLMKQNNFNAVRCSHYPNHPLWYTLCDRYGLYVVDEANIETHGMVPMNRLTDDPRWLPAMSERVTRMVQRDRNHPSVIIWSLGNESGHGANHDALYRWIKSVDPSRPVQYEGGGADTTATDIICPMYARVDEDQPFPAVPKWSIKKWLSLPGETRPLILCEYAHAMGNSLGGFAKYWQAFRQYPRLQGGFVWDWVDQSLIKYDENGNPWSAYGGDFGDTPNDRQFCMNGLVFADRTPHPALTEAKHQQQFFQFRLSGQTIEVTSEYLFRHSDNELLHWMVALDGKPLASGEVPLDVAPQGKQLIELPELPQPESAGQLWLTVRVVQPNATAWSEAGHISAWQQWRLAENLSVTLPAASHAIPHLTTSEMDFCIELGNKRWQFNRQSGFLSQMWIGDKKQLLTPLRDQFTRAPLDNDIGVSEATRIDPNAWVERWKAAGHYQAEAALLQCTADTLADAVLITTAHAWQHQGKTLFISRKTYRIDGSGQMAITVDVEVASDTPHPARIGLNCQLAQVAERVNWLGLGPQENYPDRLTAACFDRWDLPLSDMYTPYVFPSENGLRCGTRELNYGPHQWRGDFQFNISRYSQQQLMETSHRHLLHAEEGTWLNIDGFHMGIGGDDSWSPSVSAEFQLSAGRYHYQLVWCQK", "assay": "PubChem AID 485352", "type": "functional"}, "[8]": {"assay": "non-specific 3'UTR reporter inhibition in Clone20-Shn3RL – cell-based, Renilla luciferase, cherry-picked, counter-screen for Shn3 inhibitor project, dose response (AID 624133)", "type": "functional"}, "[9]": {"target": "T3, Type-1 angiotensin II receptor (Homo sapiens, UniProt P30556)", "T3 sequence (P30556 whole entry)": "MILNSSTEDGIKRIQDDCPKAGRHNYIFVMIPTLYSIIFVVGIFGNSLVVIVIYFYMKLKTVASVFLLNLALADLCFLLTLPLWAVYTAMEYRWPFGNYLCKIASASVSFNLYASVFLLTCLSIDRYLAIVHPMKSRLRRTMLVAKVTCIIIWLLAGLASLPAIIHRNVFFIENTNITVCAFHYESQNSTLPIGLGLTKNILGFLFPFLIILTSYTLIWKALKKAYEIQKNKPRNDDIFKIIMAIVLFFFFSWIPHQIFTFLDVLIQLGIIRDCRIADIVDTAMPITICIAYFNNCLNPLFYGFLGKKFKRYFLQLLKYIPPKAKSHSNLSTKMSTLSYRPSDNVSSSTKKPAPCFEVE", "assay": "antagonism of angiotensin II type 1 receptor – cell-based, uHTS hits, selectivity assay for APJ receptor antagonist project, dose response (AID 463214);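 further: antagonist potency against angiotensin II stimulated AT1 response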", "type": "functional"}, "[10]": {"tested_on": "Vero", "assay": "viability of Vero cells under compound – cytotoxicity control for flavivirus capping enzyme inhibitors (AID 588742)", "type": "functional", "settings": "Chlorocebus sabaeus"}, "[11]": {"target": "Small ubiquitin-related modifier 1 (Homo sapiens, UniProt P63165)", "sequence (P63165 whole entry)": "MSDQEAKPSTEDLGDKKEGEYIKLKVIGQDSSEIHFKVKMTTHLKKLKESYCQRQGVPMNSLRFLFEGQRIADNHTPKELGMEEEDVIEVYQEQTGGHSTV", "assay": "SUMO1 protein interaction blockers, potency – biochemical, fluorescence polarization, uHTS hits, dose response (AID 624382)", "type": "functional", "settings": "read-out: IC50_Mean"}, "[12]": {"target": "T4, Tyrosine-protein phosphatase non-receptor type 7 (Homo sapiens, UniProt P35236)", "T4 sequence (P35236 whole entry)": "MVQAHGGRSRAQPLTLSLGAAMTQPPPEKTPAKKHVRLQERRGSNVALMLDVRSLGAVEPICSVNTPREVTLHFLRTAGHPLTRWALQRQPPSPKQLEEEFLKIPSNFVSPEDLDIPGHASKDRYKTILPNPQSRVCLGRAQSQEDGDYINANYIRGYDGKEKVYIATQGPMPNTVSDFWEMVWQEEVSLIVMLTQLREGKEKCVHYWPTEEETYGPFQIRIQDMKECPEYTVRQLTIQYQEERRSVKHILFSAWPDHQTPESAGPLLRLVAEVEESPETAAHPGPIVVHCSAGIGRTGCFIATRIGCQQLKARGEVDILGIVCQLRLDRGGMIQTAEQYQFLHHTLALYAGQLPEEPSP", "type": "functional"}, "[13]": {"target": "T5, Dual specificity protein phosphatase 3 (Homo sapiens, UniProt P51452)", "T5 sequence (P51452 whole entry)": "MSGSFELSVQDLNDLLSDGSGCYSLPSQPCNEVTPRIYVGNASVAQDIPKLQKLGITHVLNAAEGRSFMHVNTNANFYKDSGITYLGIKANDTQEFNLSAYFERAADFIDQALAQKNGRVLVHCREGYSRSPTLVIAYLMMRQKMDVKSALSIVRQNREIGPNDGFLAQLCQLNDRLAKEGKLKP", "assay": "VHR1 phosphatase inhibitors, primary screen, biochemical, absorbance, uHTS (AID 1654)"}, "[14]": {"target": "Small ubiquitin-related modifier 2 (Homo sapiens, UniProt P61956)", "sequence (P61956 whole entry)": "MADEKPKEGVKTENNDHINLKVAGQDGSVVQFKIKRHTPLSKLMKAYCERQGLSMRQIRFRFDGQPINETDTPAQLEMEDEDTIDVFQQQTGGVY", "assay": "disruption of SUMO2 interaction with SIM peptide – biochemical, fluorescence polarization, uHTS hits, selectivity assay for SUMO1 interaction inhibitor project, dose response (AID 624385)", "type": "functional", "settings": "read-out: IC50_Mean"}, "[15]": {"target": "T5, Dual specificity protein phosphatase 3", "assay": "VHR1 phosphatase inhibitors, biochemical (AID 1878)"}},
  "note": "Calls of active or inactive are those of the source.",
  "data": [
    {"smiles": "O=S(=O)(O)c1cc(Cl)cc(N=Nc2ccc(O)cc2O)c1O", "values": [
      {"measurement": "AC50", "setting": "[1]", "result": "2.44 µM (active)"},
      {"measurement": "IC50", "setting": "[2]", "result": "83.7 µM (active)"},
      {"measurement": "IC50", "setting": "[3]", "result": "8.3 µM (active)"}
    ]},
    {"smiles": "C=C1C(=O)O[C@@H]2C[C@@H](C)[C@@H]3C=CC(=O)[C@@]3(C)[C@@H](OC(=O)CC(=O)O[C@H]3[C@@H]4C(=C)C(=O)O[C@@H]4C[C@@H](C)[C@@H]4C=CC(=O)[C@]43C)[C@H]12", "values": [
      {"measurement": "EC50", "setting": "[4]", "result": "5.4 µM (inconclusive)"},
      {"measurement": "IC50", "setting": "[5]", "result": "> 80 µM (inactive)"},
      {"measurement": "EC50", "setting": "[6]", "result": "0.332 µM (inconclusive)"},
      {"measurement": "EC50", "setting": "[7]", "result": "> 40 µM (inactive)"},
      {"measurement": "AC50", "setting": "[8]", "result": "0.28 µM (active)"},
      {"measurement": "IC50", "setting": "[9]", "result": "6.05 µM (active)"},
      {"measurement": "CC50", "setting": "[10]", "result": "1.64 µM (active)"}
    ]},
    {"smiles": "O=C(O)c1cccc(-n2cccc2/C=C2/NC(=O)N(c3ccc(Cl)cc3)C2=O)c1", "values": [
      {"measurement": "IC50", "setting": "[11]", "result": "21.3 µM (inactive)"},
      {"measurement": "IC50", "setting": "[12]", "result": "4.89 µM (active)"},
      {"measurement": "IC50", "setting": "[13]", "result": "< 0.98 µM (inactive)"},
      {"measurement": "IC50", "setting": "[14]", "result": "66 µM (inactive)"},
      {"measurement": "IC50", "setting": "[15]", "result": "< 1.23 µM (inactive)"}
    ]}
  ]
}
